One may read the pKa as the negative logarithm of the acid dissociation constant. A higher pKa goes with a group that holds its proton tightly.

On to `CC[NH+]1CCC[C@@H]1CNC(=O)c1c(O)cccc1OC`, for which the pKa (acidic group) turned out to be 8.7.

`O=C(Oc1cccc([N+](=O)[O-])c1)C1c2ccccc2-c2ccccc21`: the pKa (acidic group) came out at 9.84.

`c1ccc2nccnc2c1`: the pKa (basic group) came out at 0.64.

Regarding `O=C1C=C(S(=O)(=O)[O-])/C(=N/O)c2[nH]ncc21`, the pKa (acidic group) is 7.15.

Regarding `O=C(O)CSCc1ccccc1`, the pKa (acidic group) worked out at 3.73.

In turn, `Cc1n[nH]c2cc(N)ccc12` gave a pKa (basic group) of 4.

Regarding `S=c1[nH]c2ccccc2[nH]1`, the pKa (acidic group) stood at 10.2.

Where the note is “basic group”, `Cc1nnc(N)nc1C` gave a pKa of 3.71.

`Cc1cc(C)cc(C(=O)O)c1`: the pKa (acidic group) is 4.3.

With `Oc1ccc(Cl)cc1C[NH+]1CCCC1`, where the note is “acidic group”, the pKa stood at 8.3.

For `O=C(O)Cn1cnnn1`, under “acidic group”, the pKa amounted to 2.27.

The molecule `O=S1(=O)Nc2cccc3cccc1c23` registered a pKa (acidic group) of 6.2.

Take `CCCN(CCC)c1ccc([N+](=O)[O-])cc1`: the pKa (basic group) stood at 1.06.

As for `NCc1ccc(Cl)c(N)c1`, the pKa (basic group) amounted to 9.33.

`O=S(=O)(Nc1ccc(Cl)cc1)c1ccccc1` registered a pKa (acidic group) of 7.91.

In the case of `CN(C)C(=O)/C=C(\O)c1ccncc1`, the pKa (acidic group) stood at 7.32.

Regarding `CCN(CC)CCCC(C)Nc1cc(C)nc2cc(Cl)ccc12` (stereo not given), under “basic group”, the pKa is 10.2.

For `Cc1cccc(O)c1C(=O)O`, for the setting “acidic group”, the pKa was found to be 3.35.

Turning to `NC(=O)[C@@H]1CCCN1`, the pKa (acidic group) was 8.82.

`CCSc1nccc(O)[n+]1C` returned a pKa (acidic group) of 0.9.

For the molecule `CCN(CC)CCCC(C)Nc1ccnc2ccccc12` (stereo not given), the pKa (basic group) came out at 10.2.

`C=C(C)[C@@H]1CN(C(C)=O)[C@H](C(=O)OC)[C@@H]1CC(=O)O` registered a pKa (acidic group) of 4.6.

`Cc1ccc(C(=O)O)[nH]1` yielded a pKa (acidic group) of 5.

Consider `Cc1ccc(C(=O)O)cc1Cl`, for which the pKa (acidic group) stood at 4.06.

In turn, `CC(=O)C(C)[N+](=O)[O-]` (stereo not given) had a pKa (acidic group) of 5.15.

In the case of `Nc1ccc(C(=O)O)cc1`, the pKa turned out to be 4.84 (acidic group) and 2.41 (basic group).

Where the note is “acidic group”, `CCCCCC[NH2+]CCC(=O)O` gave a pKa of 3.61.

`CC1(C)CC=CC(=O)C1`: the pKa (acidic group) worked out at 12.4.

On to `CC(=O)OCCc1c[nH]cn1`, for which the pKa (basic group) is 6.97.

With `Cc1cccc(C)c1N`, where the note is “basic group”, the pKa was found to be 3.84.

In turn, `C[NH+](C)CCCCCNC(=O)/C=N/O` gave a pKa (acidic group) of 8.88.

Consider `CN1CC[C@]23c4c5ccc(O)c4O[C@H]2[C@@H](O)C=C[C@H]3[C@H]1[C@H]5O`, for which the pKa by setting is: (acidic group) 9.06; (basic group) 7.13.

`N/N=C/c1ncnc2nc[nH]c12` gave a pKa (basic group) of 9.2.

On to `O/C(=C\c1ccccn1)c1ccccc1`, for which the pKa came to 11.1 (acidic group) and 4.52 (basic group).

In the case of `Cn1cnc2[nH]c(=O)[nH]c(=O)c21`, the pKa by setting is: (acidic group) 8.45; (basic group) 0.87.

For the molecule `[O-]c1c(O)cccc1O`, where the note is “acidic group”, the pKa was determined as 11.2.

On to `Cc1csc(C(=O)O)c1`, for which the pKa (acidic group) stood at 3.66.

The molecule `Cc1cc(O)ccc1[S+](C)C` returned a pKa (acidic group) of 7.6.

Take `CC1=NCCc2c1[nH]c1ccc([N+](=O)[O-])cc21`: the pKa amounted to 12.6 (acidic group) and 6.37 (basic group).

In the case of `CC[NH+](CC)Cc1cc(Cl)ccc1O`, under “acidic group”, the pKa is 8.11.

`CN(C)S(=O)(=O)c1ccc(N)cc1` had a pKa (basic group) of 1.53.

Molecule `O=C(O)/C=C\SC1CCCCC1` displayed a pKa (acidic group) of 4.95.

`O=C(O)c1ccccc1I` showed a pKa (acidic group) of 2.93.

As to `CCCCCCCCCCCCN(CC(C)O)CC(C)O` (stereo not given), the pKa (basic group) was 7.8.

`NS(=O)(=O)c1cccc(C(=O)O)c1` returned a pKa (acidic group) of 3.61.

`CC(C)C(N)C(C)C` gave a pKa (basic group) of 10.4.

Turning to `C[C@H]1CC[C@@H](C(=O)O)CC1`, for the setting “acidic group”, the pKa was 5.04.

For `CCn1ccnc1C`, the pKa (basic group) was found to be 8.09.

Consider `CCOC(=O)CC(=O)c1ccc(C)cc1`, for which, where the note is “acidic group”, the pKa was determined as 10.7.

As for `CS(=O)(=O)c1ccc(O)cc1`, for the setting “acidic group”, the pKa is 7.83.

Regarding `Cc1cc2nc3ccc(N(C)C)cc3nc2cc1N`, the pKa amounted to 14.7 (acidic group) and 7.18 (basic group).

The molecule `CC1NOCc2ccccc21` (stereo not given) returned a pKa (basic group) of 3.7.

Turning to `Nc1ccc(S(=O)(=O)Nc2cccnn2)cc1`, the pKa reads like this: (acidic group) 7.06; (basic group) 1.3.

`NC1CCN(Cc2ccccc2)CC1` gave a pKa (basic group) of 9.79.

Turning to `Cc1cc([S-])ncn1`, the pKa (basic group) was 7.3.

`NC/C=C/C(=O)[O-]`: where the note is “basic group”, the pKa came to 9.46.

Take `OC(CN1CCOCC1)C[NH+]1CCOCC1`: under “basic group”, the pKa is 5.

`CC(C)(C)/C(N)=N/O` yielded a pKa (basic group) of 5.8.

In the case of `CCOC(=O)c1c(C)nc(C)c(C(=O)OCC)c1-c1ccc(NS(=O)(=O)c2ccc(N)cc2)cc1`, the pKa (acidic group) was 9.15.

`COc1c(N)cccc1C(=O)N[C@@H]1C[C@H]2CC[C@@H](C1)N2Cc1ccccc1`: where the note is “basic group”, the pKa is 8.86.

The molecule `Cc1csc(NS(=O)(=O)c2ccc(N)cc2)n1` had a pKa (acidic group) of 7.12.

For the molecule `O=C(O)CCCCc1ccccc1`, the pKa (acidic group) is 4.88.

On to `Cc1ccc(I)c(C(=O)O)c1`, for which the pKa (acidic group) was found to be 2.95.

Values taken from the pKa sets of Baltruschat and Czodrowski (2020).
